Experimental data reported in patent publication US6472391B2, “Nitrogen-containing heterocyclic compounds” (Millennium Pharmaceuticals, Inc., priority 1996, dated 2002).

CC(C)c1ccc(NC(=O)N2CCN(c3ncnc4ccc(I)cc34)CC2)cc1 [Compound 304, 4-(6-Iodo-4-quinazolinyl)-N-(4-isopropylphenyl)-1-piperazinecarboxamide]
melting point: 211 to 212 °C

O=C(Nc1ccc(Oc2ccccc2)cc1)N1CCN(c2ncnc3ccc(I)cc23)CC1 [Compound 305, 4-(6-Iodo-4-quinazolinyl)-N-(4-phenoxyphenyl)-1-piperazinecarboxamide]
melting point: 184 to 185 °C

COc1ccc2ncnc(N3CCN(C(=O)Nc4ccc(Oc5ccccc5)cc4)CC3)c2c1 [Compound 307, 4-(6-Methoxy-4-quinazolinyl)-N-(4-phenoxyphenyl)-1-piperazinecarboxamide]
melting point: 139 to 140 °C

COc1ccc2ncnc(N3CCN(C(=O)Nc4ccc([N+](=O)[O-])cc4)CC3)c2c1 [Compound 308, 4-(6-Methoxy-4-quinazolinyl)-N-(4-nitrophenyl)-1-piperazinecarboxamide]
melting point: 228 to 229 °C

COc1ccc2ncnc(N3CCN(C(=S)NCc4ccccc4)CC3)c2c1 [Compound 309, N-Benzyl-4-(6-methoxy-4-quinazolinyl)-1-piperazinethiocarboxamide]
melting point: 68 to 70 °C

COc1ccc2ncnc(N3CCN(C(=S)NCc4cccnc4)CC3)c2c1 [Compound 310, 4-(6-Methoxy-4-quinazolinyl)-N-(3-picolyl)-1-piperazinethiocarboxamide]
melting point: 139 to 140 °C

O=C(Nc1ccc(Oc2ccccc2)cc1)N1CCN(c2ncnc3ccc([N+](=O)[O-])cc23)CC1 [Compound 311, 4-(6-Nitro-4-quinazolinyl)-N-(4-phenoxyphenyl)-1-piperazinecarboxamide]
melting point: 170 to 171 °C

Cc1ccc2c(N3CCN(C(=O)Nc4ccc([N+](=O)[O-])cc4)CC3)ncnc2c1 [Compound 313, 4-(7-Methyl-4-quinazolinyl)-N-(4-nitrophenyl)-1-piperazinecarboxamide]
melting point: 251 to 254 °C

Cc1ccc2c(N3CCN(C(=S)NCc4ccccc4)CC3)ncnc2c1 [Compound 314, N-Benzyl-4-(7-methyl-4-quinazolinyl)-1-piperazinethiocarboxamide]
melting point: 177 to 178 °C

S=C(NCc1ccccc1)N1CCN(c2ncnc3cc(Cl)ccc23)CC1 [Compound 317, N-Benzyl-4-(7-chloro-4-quinazolinyl)-1-piperazinethiocarboxamide]
melting point: 70 to 71 °C

CC(C)Oc1ccc2c(N3CCN(C(=O)Nc4ccc(Oc5ccccc5)cc4)CC3)ncnc2c1 [Compound 318, 4-(7-Isopropoxy-4-quinazolinyl)-N-(4-phenoxyphenyl)-1-piperazinecarboxamide]
melting point: 181 to 182 °C

O=C(Nc1ccc(Oc2ccccc2)cc1)N1CCN(c2ncnc3cc([N+](=O)[O-])ccc23)CC1 [Compound 322, 4-(7-Nitro-4-quinazolinyl)-N-(4-phenoxyphenyl)-1-piperazinecarboxamide]
melting point: 146 to 148 °C

CC(=O)c1ccc(NC(=O)N2CCN(c3ncnc4c(Cl)cccc34)CC2)cc1 [Compound 325, N-(4-Acetylphenyl)-4-(8-chloro-4-quinazolinyl)-1-piperazinecarboxamide]
melting point: 208 to 209 °C

COc1cccc2c(N3CCN(C(=O)Nc4ccc(C(C)C)cc4)CC3)ncnc12 [Compound 326, N-(4-Isopropylphenyl)-4-(8-methoxy-4-quinazolinyl)-1-piperazinecarboxamide]
melting point: 102 to 104 °C

COc1cccc2c(N3CCN(C(=O)Nc4ccc(Oc5ccccc5)cc4)CC3)ncnc12 [Compound 327, 4-(8-Methoxy-4-quinazolinyl)-N-(4-phenoxyphenyl)-1-piperazinecarboxamide]
melting point: 108 to 109 °C

COc1cccc2c(N3CCN(C(=O)Nc4ccc(C(C)=O)cc4)CC3)ncnc12 [Compound 328, N-(4-Acetylphenyl)-4-(8-methoxy-4-quinazolinyl)-1-piperazinecarboxamide]
melting point: 239 to 240 °C

O=C(Nc1ccc(Oc2ccccc2)cc1)N1CCN(c2ncnc3cc(F)c(F)cc23)CC1 [Compound 329, 4-(6,7-Difluoro-4-quinazolinyl)-N-(4-phenoxyphenyl)-1-piperazinecarboxamide]
melting point: 177 to 178 °C

Fc1cc2ncnc(N3CCN(C(=S)NCc4ccccc4)CC3)c2cc1F [Compound 330, N-Benzyl-4-(6,7-difluoro-4-quinazolinyl)-1-piperazinethiocarboxamide]
melting point: 119 to 120 °C

Fc1cc2ncnc(N3CCN(C(=S)NCc4cccnc4)CC3)c2cc1F [Compound 331, 4-(6,7-Difluoro-4-quinazolinyl)-N-(3-picolyl)-1-piperazinethiocarboxamide]
melting point: 177 to 178 °C

CCOc1cc2ncnc(N3CCN(C(=O)Nc4ccc(Oc5ccccc5)cc4)CC3)c2cc1F [Compound 332, 4-(7-Ethoxy-6-fluoro-4-quinazolinyl)-N-(4-phenoxyphenyl)-1-piperazinecarboxamide]
melting point: 197 to 198 °C

COc1cc2c(N3CCN(C(=O)Nc4ccc(Oc5ccccc5)cc4)CC3)ncnc2cc1C [Compound 333, 4-(6-Methoxy-7-methyl-4-quinazolinyl)-N-(4-phenoxyphenyl)-1-piperazinecarboxamide]
melting point: 188 to 189 °C

COc1cc2c(N3CCN(C(=O)Nc4ccc(C#N)cc4)CC3)ncnc2cc1C [Compound 334, N-(4-Cyanophenyl)-4-(6-methoxy-7-methyl-4-quinazolinyl)-1-piperazinecarboxamide]
melting point: 242 to 243 °C

CCOc1cc2ncnc(N3CCN(C(=O)Nc4ccc(Oc5ccccc5)cc4)CC3)c2cc1OC [Compound 335, 4-(7-Ethoxy-6-methoxy-4-quinazolinyl)-N-(4-phenoxyphenyl)-1-piperazinecarboxamide]
melting point: 174 to 175 °C

CCOc1cc2ncnc(N3CCN(C(=O)Nc4ccc(Br)cc4)CC3)c2cc1OC [Compound 336, N-(4-Bromophenyl)-4-(7-ethoxy-6-methoxy-4-quinazolinyl)-1-piperazinecarboxamide]
melting point: 210 to 212 °C

CCOc1cc2ncnc(N3CCN(C(=S)NCc4ccccc4)CC3)c2cc1OC [Compound 337, N-Benzyl-4-(7-ethoxy-6-methoxy-4-quinazolinyl)-1-piperazinethiocarboxamide]
melting point: 168 to 169 °C

CCOc1cc2ncnc(N3CCN(C(=S)NCc4cccnc4)CC3)c2cc1OC [Compound 338, 4-(7-Ethoxy-6-methoxy-4-quinazolinyl)-N-(3-picolyl)-1-piperazinethiocarboxamide]
melting point: 169 to 170 °C

COc1cc2c(N3CCN(C(=O)Nc4ccc(Oc5ccccc5)cc4)CC3)ncnc2cc1OC(C)C [Compound 339, 4-(7-Isopropoxy-6-methoxy-4-quinazolinyl)-N-(4-phenoxyphenyl)-1-piperazinecarboxamide]
melting point: 157 to 160 °C

COc1cc2c(N3CCN(C(=S)NCc4ccccc4)CC3)ncnc2cc1OC(C)C [Compound 341, N-Benzyl-4-(7-isopropoxy-6-methoxy-4-quinazolinyl)-1-piperazinethiocarboxamide]
melting point: 174 to 175 °C

COc1cc2c(N3CCN(C(=S)NCc4cccnc4)CC3)ncnc2cc1OC(C)C [Compound 342, 4-(7-Isopropoxy-6-methoxy-4-quinazolinyl)-N-(3-picolyl)-1-piperazinethiocarboxamide]
melting point: 205 to 206 °C

CCOc1cc2c(N3CCN(C(=O)Nc4ccc(Oc5ccccc5)cc4)CC3)ncnc2cc1OC [Compound 346, 4-(6-Ethoxy-7-methoxy-4-quinazolinyl)-N-(4-phenoxyphenyl)-1-piperazinecarboxamide]
melting point: 213 to 214 °C

CCOc1cc2c(N3CCN(C(=O)Nc4ccc(C#N)cc4)CC3)ncnc2cc1OC [Compound 347, N-(4-Cyanophenyl)-4-(6-ethoxy-7-methoxy-4-quinazolinyl)-1-piperazinecarboxamide]
melting point: 178 to 179 °C

CCOc1cc2c(N3CCN(C(=S)NCc4ccccc4)CC3)ncnc2cc1OC [Compound 348, N-Benzyl-4-(6-ethoxy-7-methoxy-4-quinazolinyl)-1-piperazinethiocarboxamide]
melting point: 170 to 171 °C

CCOc1cc2c(N3CCN(C(=S)NCc4cccnc4)CC3)ncnc2cc1OC [Compound 349, 4-(6-Ethoxy-7-methoxy-4-quinazolinyl)-N-(3-picolyl)-1-piperazinethiocarboxamide]
melting point: 208 to 209 °C

COc1cc2ncnc(N3CCN(C(=O)Nc4ccc(Oc5ccccc5)cc4)CC3)c2cc1OS(C)(=O)=O [Compound 350, 4-(6-Mesyloxy-7-methoxy-4-quinazolinyl)-N-(4-phenoxyphenyl)-1-piperazinecarboxamide]
melting point: 228 to 229 °C

COc1cc2ncnc(N3CCN(C(=S)NCc4ccccc4)CC3)c2cc1OS(C)(=O)=O [Compound 351, N-Benzyl-4-(6-mesyloxy-7-methoxy-4-quinazolinyl)-1-piperazinethiocarboxamide]
melting point: 76 to 80 °C

CCOc1cc2ncnc(N3CCN(C(=O)Nc4ccc(C#N)cc4)CC3)c2cc1OCC [Compound 352, N-(4-Cyanophenyl)-4-(6,7-diethoxy-4-quinazolinyl)-1-piperazinecarboxamide]
melting point: 186 to 187 °C

CCOc1cc2ncnc(N3CCN(C(=S)NCc4ccccc4)CC3)c2cc1OCC [Compound 353, N-Benzyl-4-(6,7-diethoxy-4-quinazolinyl)-1-piperazinethiocarboxamide]
melting point: 134 to 136 °C

CCOc1cc2ncnc(N3CCN(C(=S)NCc4cccnc4)CC3)c2cc1OCC [Compound 354, 4-(6,7-Diethoxy-4-quinazolinyl)-N-(3-picolyl)-1-piperazinethiocarboxamide]
melting point: 90 to 92 °C

O=C(Nc1ccc(Oc2ccccc2)cc1)N1CCN(c2ncnc3cc(OCc4ccccc4)c(OCc4ccccc4)cc23)CC1 [Compound 355, 4-(6,7-Dibenzyloxy-4-quinazolinyl)-N-(4-phenoxyphenyl)-1-piperazinecarboxamide]
melting point: 137 to 138 °C

O=[N+]([O-])c1cc2c(N3CCN(C(=S)NCc4ccccc4)CC3)ncnc2cc1Cl [Compound 358, N-Benzyl-4-(7-chloro-6-nitro-4-quinazolinyl)-1-piperazinethiocarboxamide]
melting point: 93 to 95 °C
